Laboratory results reported in PMC11597202, “Novel Thiazole-Fused [4,5-g] or [5,4-g]Quinazolin-8-ones and Their Quinazoline Analogues: Synthesis and Biological Evaluation” (Pharmaceuticals, 2024).

Target: T1, Haspin (Homo sapiens, UniProt Q8TF76)
T1 construct: amino acids 470 to Histone H3 peptide (1-21): (Other) 798, recombinant; host or cells: bacteria
T1 sequence (Q8TF76 470-798): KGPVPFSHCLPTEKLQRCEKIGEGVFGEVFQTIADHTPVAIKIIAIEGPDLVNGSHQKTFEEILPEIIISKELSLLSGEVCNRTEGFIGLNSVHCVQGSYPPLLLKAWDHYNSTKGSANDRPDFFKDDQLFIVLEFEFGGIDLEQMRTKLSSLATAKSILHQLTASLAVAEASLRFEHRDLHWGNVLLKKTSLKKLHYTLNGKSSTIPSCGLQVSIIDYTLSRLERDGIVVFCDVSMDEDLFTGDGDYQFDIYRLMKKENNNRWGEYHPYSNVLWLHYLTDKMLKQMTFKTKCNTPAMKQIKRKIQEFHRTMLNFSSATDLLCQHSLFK
Experiment: ADP-Glo kinase inhibition assay, Haspin
Format: biochemical
Settings: percentage of maximum activity of the DMSO control, mean n = 2, 10 µM ATP, read-out: Residual activity Haspin; for remaining activity at 1 µM: 1 μM compound; for remaining activity at 10 µM: 10 μM compound
Protocol: Kinase enzymatic activities were assayed in 384-well plates using the ADP-Glo^TM assay kit (Promega, Madison, WI, USA) according to the recommendations of the manufacturer. This luminescent ADP detection assay was described by Zegzouti and co-workers and provides a homogeneous and high-throughput screening method to measure kinase activity by quantifying the amount of ADP produced during a kinase reaction. Briefly, the reactions were carried out in a final volume of 6 µL for 30 min at 30 °C in an appropriate kinase buffer (10 mM MgCl2, 1 mM EGTA, 1 mM DTT, 25 mM Tris-HCl pH 7.5, 50 µg/mL heparin), with peptide or protein as substrate in the presence of 10 µM ATP. Peptide substrates were obtained from ProteoGenix (Schiltigheim, France) or Sigma for Histone H1, Poly (L-glutamic acid–L-tyrosine) sodium salt, Casein and MBP. After that, 6 µL of ADP-Glo^TM Kinase Reagent was added to stop the kinase reaction. After an incubation time of 50 min at room temperature (rt), 12 µL of Kinase Detection Reagent was added for one hour at rt. The transmitted signal was measured using the Envision (PerkinElmer, Waltham, MA, USA) microplate luminometer and expressed as Relative Light Units (RLUs). Kinase activities are expressed as percentages of remaining kinase activities detected after treatment with 1 or 10 µM of the tested compounds. The maximum kinase activity was measured in the absence of inhibitor but with an equivalent dose of DMSO (solvent of the tested compounds).
3. Kinase inhibition assays
Kinase enzymatic activities were assayed in 384-well plates using the ADP-GloTM assay kit (Promega, Madison, WI) according to the recommendations of the manufacturer. This luminescent ADP detection assay was described by Zegzouti and co-workers and provides a homogeneous and high-throughput screening method to measure kinase activity by quantifying the amount of ADP produced during a kinase reaction. Briefly, the reactions were carried out in a final volume of 6 µl for 30 min at 30°C in appropriate kinase buffer (10 mM MgCl2, 1 mM EGTA, 1 mM DTT, 25 mM Tris-HCl pH 7.5, 50 µg/mL heparin), with peptide or protein as substrate in the presence of 10 µM ATP. Peptide substrates were obtained from ProteoGenix (Schiltigheim, France) or Sigma for Histone H1, Poly (L-glutamic acid – L-tyrosine) sodium salt, Casein and MBP. After that, 6 µL of ADP-GloTM Kinase Reagent was added to stop the kinase reaction. After an incubation time of 50 min at room temperature (rt), 12 µL of Kinase Detection Reagent was added for 1 h at rt. The transmitted signal was measured using the Envision (PerkinElmer, Waltham, MA) microplate luminometer and expressed in Relative Light Unit (RLU). Kinase activities are expressed in percentages of remaining kinase activities detected after treatment with 1 or 10 µM of the tested compounds. The maximal kinase activity is measured in the absence of inhibitor but with an equivalent dose of DMSO (solvent of the tested compounds).
Table. Human protein kinases tested in the panel: CDK9, HASPIN, PIM1, GSK3b, CK1ε, JAK3, CLK1 […]
Protein Kinase Enzyme Description Substrate1
(Family) (Working concentration)
CDK9/CyclinT Human, recombinant, expressed by Peptide:
(CMGC) baculovirus in Sf9 insect cells […]
CLK1 Human, recombinant, expressed by Peptide: […]
(CMGC) baculovirus in Sf9 insect cells (57.3µM)
DYRK1A Human, recombinant, expressed by Peptide: […]
(CMGC) baculovirus in Sf9 insect cells (10.7µM)
PIM1 Human proto-oncogene, recombinant, Peptide: […]
(CAMK) expressed in bacteria (630 µM)
GSK3 Human, recombinant, expressed by Peptide:
(CMGC) baculovirus in Sf9 insect cells […]pEDEEE 3
HASPIN Human, kinase domain, amino acids 470 to Histone H3 peptide (1-21):
(Other) 798, recombinant, expressed in bacteria […] (8µM)
CK1ε Human, recombinant, expressed by Peptide: […]pAYSITA 2
(CK1) baculovirus in Sf9 insect cells (170µM)
JAK3 Human, recombinant, expressed by Peptide: […]
(TK) baculovirus in Sf9 insect cells (94µM) […]

Compound | remaining activity at 1 µM [%] | remaining activity at 10 µM [%]
COC(=N)c1nc2cc3ncn(Cc4ccccc4)c(=O)c3cc2s1 [Compound 6b, Methyl 7-benzyl-8-oxo-7,8-dihydrothiazolo[5,4-g]quinazoline-2-carbimidate] | 95 | 82
COC(=N)c1nc2c(ccc3c(=O)n(Cc4ccccc4)cnc32)s1 [Compound 6c, Methyl 7-benzyl-6-oxo-6,7-dihydrothiazolo[5,4-h]quinazoline-2-carbimidate] | 39 | 12
COC(=N)c1nc2ccc3ncnc(Nc4ccc(OC)cc4F)c3c2s1 [Compound II, methyl 9-[(2-fluoro-4-methoxyphenyl)amino]thiazolo[5,4-f]quinazoline-2-carbimidate, reference compound] | 31 | 8
COC(=N)c1nc2ccc3ncn(Cc4ccccc4)c(=O)c3c2s1 [Compound I, methyl 8-benzyl-9-oxo-8,9-dihydrothiazolo[5,4-f]quinazoline-2-carbimidate, reference compound] | 60 | 45

More lines, now with the values ahead:

remaining activity at 1 µM [%] | remaining activity at 10 µM [%] | Compound
82 | 51 | COC(=N)c1nc2ccc3c(=O)n(Cc4ccccc4)cnc3c2s1 [Compound 6d, Methyl 7-benzyl-6-oxo-6,7-dihydrothiazolo[4,5-h]quinazoline-2-carbimidate]
83 | 66 | COC(=N)c1nc2cc3c(Nc4ccc(OC)cc4F)ncnc3cc2s1 [Compound 15a, Methyl 8-[(2-fluoro-4-methoxyphenyl)amino]thiazolo[4,5-g]quinazoline-2-carbimidate]
89 | 105 | COC(=N)c1nc2cc3c(=O)n(Cc4ccccc4)cnc3cc2s1 [Compound 6a, Methyl 7-benzyl-8-oxo-7,8-dihydrothiazolo[4,5-g]quinazoline-2-carbimidate]
80 | 88 | COC(=N)c1nc2cc3ncnc(Nc4ccc(OC)cc4F)c3cc2s1 [Compound 15b, Methyl 8-[(2-fluoro-4-methoxyphenyl)amino]thiazolo[5,4-g]quinazoline-2-carbimidate]
